Test results taken from patent US8247552B2, “Analogs of dehydrophenylahistins and their therapeutic use” (Nereus Pharmaceuticals, Inc., priority 2002, dated 2012).
Values after ≈ are worked out from the molar mass of the structure shown.

Key:
Epidermophyton floccosum = assay: Antifungal susceptibility testing (NCCLS M38-A), MIC/MFC; format: cell-based; conditions: Table 24, read-out: E. floccosum isolate #2 (column head empty, before MFC)
Description: Specifically, disclosed compounds were evaluated alongside commercially available microtubulin inhibitors as well as recognized antifungal agents. […].
(§1) Microorganisms against which these compounds were tested included: Candida albicans, Candida glabrata, Aspergillus fumigatus, Trichophyton rubrum, Trichophyton mentagrophytes, Epidermophyton floccosum. With the exception of Candida glabrata (one isolate), two isolates of each species were tested.
Drug concentrations were 0.03-16 μg/ml for the investigational compounds, 0.015-8 μg/ml for itraconazole and griseofulvin.
The minimum lethal concentration (MLC) was determined by plating […] from the MIC concentration and each concentration above the MIC. […] When a MIC was obtained, a minimum fungicidal concentration (MFC) was determined to assess the fungistatic/fungicidal nature of the compound. […] The compound is scored as fungistatic if the cells are able to resume growth and fungicidal if no regrowth is possible because the compound had killed the organisms.

HT-29 human colon cells = assay: Tumor cytotoxicity / cell growth inhibition assay, resazurin fluorescence, 48 h; format: cell-based
Cytotoxicity, resazurin = format: cell-based; conditions: human, CCD-27sk normal fibroblasts; Table 12; CCD-27sk Fibroblast
Description: (§2) Cells were maintained at subconfluent densities in their respective culture media.

[1] = tested on: OVCAR-3 (human ovarian tumor); assay: Cytotoxicity, resazurin; format: cell-based; conditions: Table 12, OVCAR-3 Ovary
Description: as §2

[2] = tested on: poly(ADP-ribose) polymerase (PARP) in Jurkat cells; assay: Cleavage of poly(ADP-ribose) polymerase by western blotting; format: cell-based, human; conditions: 100 nM, 10 hours after exposure
[3] = tested on: DU-145 human prostate tumor; assay: DU-145 Human Prostate Tumor Xenograft Model; format: in vivo, mice; conditions: KPU-2 plus taxotere, treatment Days 20-27
Description: Selected novel compounds were administered as monotherapy via the intraperitoneal (i.p.) route at the doses indicated for the individual study; for the combination studies the selected reference chemotherapy agents were injected 15-30 min prior to the compound.
When the tumors reached ˜5 mm×5 mm (at about 13-17 days) the animals were matched into treatment and control groups. The remainder of the study proceeded as for the HT-29 model, using taxotere as the standard chemotherapy agent.
In this model unless otherwise noted for the individual study, test compounds were administered via the intraperitoneal route on Days 1, 3, 5, 8 and 11 (q3dx5); taxotere was administered intravenously on Days 1, 3 and 5 (q2dx3).

MCF-7 human breast tumor = assay: MCF-7 Human Breast Tumor Xenograft Model; format: in vivo, mice; conditions: combination with taxotere
Description: Animals used were (exceptions are indicated for individual studies): female nude mice (nu/nu) between 5 and 6 weeks of age (˜20 g, Harlan); group size was 9-10 mice per group unless otherwise indicated.
Female nude mice (˜20 g) were implanted s.c. with 21-day release estrogen (0.25 mg) pellets 24 hours prior to the s.c. implantation with MCF-7 tumor fragments (harvested from s.c. tumors in nude mice hosts). The study then proceeded as described for the HT-29 model, using taxotere as the standard chemotherapy agent.
In this model unless otherwise noted for the individual study, the novel compounds were injected via the intraperitoneal route daily on Days 1-5, inclusive (qdx5); taxotere was administered intravenously on Days 1, 3 and 5 (qodx3).
The doses of the compounds were administered on Days 1, 2, 3, 4, and 7; Taxotere was administered on Days 1, 3 and 7.

[4] = tested on: MDA-231 human breast tumor; assay: MDA-231 Human Breast Tumor Orthotopic (mammary fat pad) Xenograft Model; format: in vivo, mice; conditions: KPU-2 7.5 mg/kg ip q3dx5 with paclitaxel 16 mg/kg ip qdx5; three weeks
Description: The animals used were: female nude mice (nu/nu) (MDA-231 study) or B6D2F1 (B16-F10 studies) mice between 5 and 6 weeks of age (˜20 g, Harlan); group size was 10 mice per group unless otherwise indicated.
NPI compounds were administered as monotherapy via the intraperitoneal route at the doses indicated for the individual study; for the combination studies the selected reference chemotherapy agents were injected 15-30 min prior to the NPI compound.
Female nude mice were injected in the mammary fat pad with 2×10^6 MDA-231 cells harvested from in vitro cell culture. When the tumor size reached 5 mm×5 mm (about 14-28 days) the animals were matched into treatment and control groups. The study then proceeded as described for the HT-29 model, using paclitaxel as the standard chemotherapy agent.
In this model unless otherwise noted for the individual study, the test compounds were administered via the intraperitoneal route on Days 1, 4, 8, 11 and 15 (q3dx5); paclitaxel was administered via the intraperitoneal route on Days 1-5 (qdx5).
This model involves the placement of the human tumor tissue into the mouse mammary fat pad, a surrogate of the natural environment. In this manner the possibility of a positive effect due to a specific action on the subcutaneous vascular bed is avoided.

Trichophyton rubrum = assay: Antifungal susceptibility testing (NCCLS M38-A), MIC/MFC; format: cell-based; conditions: dermatophyte isolates
Description: Specifically, disclosed compounds were evaluated alongside commercially available microtubulin inhibitors as well as recognized antifungal agents.
as §1
The minimum lethal concentration (MLC) was determined by plating […] from the MIC concentration and each concentration above the MIC. […] When a MIC was obtained, a minimum fungicidal concentration (MFC) was determined to assess the fungistatic/fungicidal nature of the compound.

[5] = tested on: human prostate tumor cells; assay: Induction of apoptosis, morphological changes; format: cell-based
Description: The characteristic signs of apoptotic cell death include cell membrane blebbing, disruption of nuclei, cell shrinkage and condensation and finally cell death, very distinctive from necrotic cell death. […] A similar finding was also clear in the treatment of HuVEC cells with KPU-2.

[6] = tested on: panel of 60 different kinases; conditions: ATP 10 μM; four kinases
HuVEC cells = assay: Microtubule (tubulin) depolymerization, α-tubulin staining; conditions: 2 μM, thirty minutes exposure
Description: The plates were returned to the incubator for 2 days.
20 mM stock solutions of compounds were prepared in 100% DMSO and stored at −80° C. 400× concentrated dilutions of the compounds were prepared in 100% DMSO. 5 μl volumes of the dilutions were added to individual wells resulting in a final concentration of 20 nM. […] The plates were returned to the incubator for 30 minutes.
The cells were rinsed in dPBS before fixation in 10% (v/v) neutral buffered formalin for 10 minutes at room temperature. Following fixation, α-tubulin was visualized by indirect immunofluorescence. Specifically, the cells were permeabilized in 0.2% (v/v) triton X-100/dPBS for 10 minutes. The cells were washed prior to transferring the coverslips to a humidified chamber, the coverslips were blocked for two hours in antibody buffer [2% (w/v) BSA/0.1% (v/v) Tween 20/dPBS]. The coverslips were incubated with 50 μl of 0.1 μg/ml mouse α-tubulin (Molecular Probes) in antibody buffer for 1 hour before washing and incubation with 50 μl of 1 μg/ml goat anti-mouse FITC (Jackson ImmunoResearch Laboratories) for one hour in the dark. Finally, the cells were washed and treated with 2 μg/ml DAPI (Molecular Probes) for 10 minutes before rinsing in H2O and mounting with Vectashield (Vector Labs) mounting media. The cells were imaged using a 60× oil immersion objective on an upright microscope (Olympus BX51). The images were digitally captured using a CCD camera and Magnafire 2.0 software (Olympus). Post image processing was performed in Photoshop Elements 2.0 (Adobe) and in Microsoft Powerpoint.
Human umbilical vein endothelial cells (HuVECs; Cambrex CC2519A) were maintained at subconfluent densities in EGM-2 (Cambrex) media. […] The plates were returned to the incubator for 2 days.
Stock (20 mM) solutions of the test compounds were prepared in 100% DMSO. 400× concentrated dilutions of the compounds were prepared in 100% DMSO. 5 μl volumes of the dilutions were added to individual wells resulting in a final concentration of 200 nM. […] The plates were returned to the incubator for 30 minutes.
The cells were rinsed in dPBS before fixation in 10% (v/v) neutral buffered formalin for 10 minutes at room temperature. Following fixation, α-tubulin was visualized by indirect immunofluorescence. Specifically, the cells were permeabilized in 0.2% (v/v) triton X-100/dPBS for 10 minutes. The cells were washed prior to transferring the coverslips to a humidified chamber, the coverslips were blocked for two hours in antibody buffer (2% (w/v) BSA/0.1% (v/v) Tween 20/dPBS). The coverslips were incubated with 50 μl of 0.1 μg/ml mouse α-tubulin (Molecular Probes) in antibody buffer for 1 hour before washing and incubation with 50 μl of 1 μg/ml goat anti-mouse FITC (Jackson ImmunoResearch Laboratories) for one hour in the dark. Finally, the cells were washed and treated with 2 μg/ml DAPI (Molecular Probes) for 10 minutes before rinsing in H2O and mounting with Vectashield (Vector Labs) mounting media. The cells were imaged using a 60× oil immersion objective on an upright microscope (Olympus BX51). The images were digitally captured using a CCD camera and Magnafire 2.0 software (Olympus). Post image processing was performed in Photoshop Elements 2.0 (Adobe) and in Microsoft Powerpoint.

[7] = tested on: MES-SA/Dx5 (Taxol resistant) human uterine sarcoma; assay: Cytotoxicity / growth inhibition in multidrug resistant uterine sarcoma cells; format: cell-based; conditions: versus MES-SA
Description: 1) Human Uterine Sarcoma Tumor Cell Line Pair: MES-SA (Taxol Sensitive) and MES-SA/Dx5 (Taxol Resistant).
HL-60 and HL-60/MX2 cells were both seeded at 5×10^4 cells/well in 90 μl complete media into 96 well plates on the day of compound addition. […] Ten μl volumes of the 10× serial dilutions were added to the test wells in triplicate and the plates returned to the incubator for 48 hours.
Resazurin dye in medium without cells was used to determine the background, which was subtracted from the data for all experimental wells.
The multidrug resistant MES-SA/Dx5 tumor cell line was derived from the human uterine sarcoma MES-SA tumor cell line and expresses elevated P-Glycoprotein (P-gp), an ATP dependent efflux pump. […] Paclitaxel, a known substrate of the P-gp pump was included as a control.

[8] = tested on: HL-60 human acute promyelocytic leukemia (Mitoxantrone-sensitive); assay: Cytotoxicity / growth inhibition in sensitive leukemia cells; format: cell-based; conditions: Table 20, mean of two independent experiments, 48 hours
Description: (§3) HL-60 and HL-60/MX2 cells were both seeded at 5×10^4 cells/well in 90 μl complete media into 96 well plates on the day of compound addition. 20 mM stock solutions of the compounds were prepared in 100% DMSO and stored at −80° C. […] Ten μl volumes of the 10× serial dilutions were added to the test wells in triplicate and the plates returned to the incubator for 48 hours.

[9] = tested on: HL-60/MX-2 (Mitoxantrone-resistant); assay: Cytotoxicity / growth inhibition in resistant leukemia cells; format: cell-based, human
Description: as §3

COC1=CC(=O)C[C@@H](C)[C@]12Oc1c(Cl)c(OC)cc(OC)c1C2=O [griseofulvin, Griseofulvin]
MFC (Epidermophyton floccosum): 4 µg/mL (≈ 11.3 µM)

CC(C)(C)c1[nH]cnc1/C=c1\[nH]c(=O)/c(=C/c2ccccc2)[nH]c1=O [KPU-2, tBu-dehydrophenylahistin]
cytotoxic activity against HT-29 cells (HT-29 human colon cells): active in the low nanomolar range | cytotoxicity at 48 h (Cytotoxicity, resazurin): 64.3% | IC50 [1]: > 20 nM | cleavage of PARP [2]: induced cleavage of PARP | apparent TGI of combination therapy [3]: > 58% | effect on estimated tumor growth with taxotere (MCF-7 human breast tumor): appeared to be the most effective | inhibition of tumor growth [4]: significant inhibition of tumor growth in the combination therapy group | antifungal potency compared with griseofulvin (Trichophyton rubrum): equivalent in potency or in some cases more potent than griseofulvin | morphological changes of apoptosis [5]: induced the typical morphological changes associated with early stages of apoptosis | IC50 against kinases inhibited >50% in primary screen [6]: low micromolar range | microtubule depolymerization in HuVEC cells (HuVEC cells): induced microtubule depolymerization

O=C1c2c(O)ccc(O)c2C(=O)c2c(NCCNCCO)ccc(NCCNCCO)c21 [mitoxantrone, Mitoxantrone]
reduced susceptibility of MES-SA/DX5 cell line [7]: 20 fold | EC50 [8]: 42 nM | EC50 ([9]; Homo sapiens, HL60/MX2, Table 20, mean of two independent experiments, 48 hours): 1100 nM | loss of efficacy in the resistant HL-60/MX-2 cell line ([9]; versus HL-60, Example 10): 24 fold | times less active against resistant HL-60/MX2 cells ([9]; versus HL-60, Example 11): ~26 times
